# ChEMBL document CHEMBL3627682, “Exploration of the structure-activity relationship of 1,2,4-oxadiazole antibiotics” (2015)
# Columns and labels:
# Format in all cases: functional
# Staphylococcus aureus [1] = experiment: Antibacterial activity against Staphylococcus aureus ATCC 29213
# Enterococcus faecalis [2] = experiment: Antibacterial activity against vancomycin-resistant Enterococcus faecalis 99
# Staphylococcus aureus [3] = experiment: Antibacterial activity against ciprofloxacin, gentamicin, oxacillin, penicillin, and linezolid-resistant Staphylococcus aureus NRS120 expressing mecA
# Staphylococcus aureus [4] = experiment: Antibacterial activity against vancomycin-resistant Staphylococcus aureus VRS2
# Enterococcus faecalis [5] = experiment: Antibacterial activity against Enterococcus faecalis ATCC 29212
# Staphylococcus aureus [6] = experiment: Antibacterial activity against methicillin, oxacillin, and tetracycline-resistant and vancomycin and linezolid-susceptible Staphylococcus aureus NRS100 COL expressing mecA
# Bacillus licheniformis = experiment: Antibacterial activity against Bacillus licheniformis ATCC 12759
# [7] = tested on: Staphylococcus haemolyticus; experiment: Antibacterial activity against Staphylococcus haemolyticus ATCC 29970
# Bacillus cereus = experiment: Antibacterial activity against Bacillus cereus ATCC 13061
# Staphylococcus aureus [8] = experiment: Antibacterial activity against ciprofloxacin, gentamicin, oxacillin, penicillin, and linezolid-resistant Staphylococcus aureus NRS119 expressing mecA
# Staphylococcus aureus [9] = experiment: Antibacterial activity against vancomycin-resistant Staphylococcus aureus VRS1
# Enterococcus faecalis [10] = experiment: Antibacterial activity against Enterococcus faecalis 201
# [11] = tested on: Staphylococcus epidermidis; experiment: Antibacterial activity against Staphylococcus epidermidis ATCC 35547
# Enterococcus faecium [12] = experiment: Antibacterial activity against Vancomycin-susceptible Enterococcus faecium 119-39A
# Enterococcus faecium [13] = experiment: Antibacterial activity against vancomycin-resistant Enterococcus faecium 106
# Staphylococcus aureus [14] = experiment: Antibacterial activity against methicillin, oxacillin, and tetracycline-resistant and vancomycin and linezolid-susceptible Staphylococcus aureus ATCC 27660 expressing mecA
# Enterococcus faecium [15] = experiment: Antibacterial activity against vancomycin-resistant Enterococcus faecium C68
smiles,measurement,setting,value
Oc1ccc(-c2nc(-c3ccc(Oc4ccc(C(F)(F)F)cc4)c(I)c3)no2)cc1,MIC,Staphylococcus aureus [1],4 µg/mL
O=C1OCc2cc(-c3noc(-c4n[nH]cc4Cl)n3)ccc21,MIC,Staphylococcus aureus [1],≥ 128 µg/mL
c1cc2cc(-c3nc(-c4ccc5c(c4)OCO5)no3)ccc2[nH]1,MIC,Staphylococcus aureus [1],≥ 128 µg/mL
Oc1ccc(-c2nc(-c3ccc4occc4c3)no2)cc1,MIC,Staphylococcus aureus [1],64 µg/mL
[N-]=[N+]=Nc1cc(-c2noc(-c3ccc(O)cc3)n2)ccc1Oc1ccc(C(F)(F)F)cc1,MIC,Enterococcus faecalis [2],4 µg/mL
same,MIC,Staphylococcus aureus [3],4 µg/mL
same,MIC,Staphylococcus aureus [4],2 µg/mL
same,MIC,Enterococcus faecalis [5],2 µg/mL
same,MIC,Staphylococcus aureus [6],4 µg/mL
same,MIC,Bacillus licheniformis,4 µg/mL
same,MIC,[7],2 µg/mL
same,MIC,Bacillus cereus,4 µg/mL
same,MIC,Staphylococcus aureus [8],4 µg/mL
same,MIC,Staphylococcus aureus [9],2 µg/mL
same,MIC,Enterococcus faecalis [10],4 µg/mL
same,MIC,[11],2 µg/mL
same,MIC,Staphylococcus aureus [1],2 µg/mL
same,MIC,Enterococcus faecium [12],4 µg/mL
same,MIC,Enterococcus faecium [13],4 µg/mL
same,MIC,Staphylococcus aureus [14],4 µg/mL
same,MIC,Enterococcus faecium [15],4 µg/mL
Oc1ccc(-c2nc(-c3ccc(Oc4ccc(C(F)(F)F)cc4)c(Cl)c3)no2)cc1,MIC,Staphylococcus aureus [1],≥ 128 µg/mL
[O-][S+](c1ccccc1)c1ccc(-c2noc(-c3ccc(O)cc3)n2)cc1 (centres undefined),MIC,Staphylococcus aureus [1],≥ 128 µg/mL
Clc1c[nH]nc1-c1nc(-c2ccc(N3CCNCC3)cc2)no1,MIC,Staphylococcus aureus [1],≥ 128 µg/mL
O=C(Nc1ccc(-c2noc(-c3ccc(O)cc3)n2)cc1)c1ccccc1,MIC,Staphylococcus aureus [1],≥ 500 µg/mL
Oc1ccc(-c2nc(-c3ccc(Oc4ccc(C(F)(F)F)cc4)c(O)c3)no2)cc1,MIC,Enterococcus faecalis [2],16 µg/mL
same,MIC,Staphylococcus aureus [3],8 µg/mL
same,MIC,Staphylococcus aureus [4],8 µg/mL
same,MIC,Enterococcus faecalis [5],8 µg/mL
same,MIC,Staphylococcus aureus [6],16 µg/mL
same,MIC,Bacillus licheniformis,16 µg/mL
same,MIC,[7],8 µg/mL
same,MIC,Bacillus cereus,8 µg/mL
same,MIC,Staphylococcus aureus [8],8 µg/mL
same,MIC,Staphylococcus aureus [9],8 µg/mL
same,MIC,Enterococcus faecalis [10],8 µg/mL
same,MIC,[11],16 µg/mL
same,MIC,Staphylococcus aureus [1],2 µg/mL
same,MIC,Enterococcus faecium [12],8 µg/mL
same,MIC,Enterococcus faecium [13],8 µg/mL
same,MIC,Staphylococcus aureus [14],16 µg/mL
same,MIC,Enterococcus faecium [15],8 µg/mL
Clc1cccc(N2CCN(c3noc(-c4ccc5[nH]ccc5c4)n3)CC2)c1,MIC,Staphylococcus aureus [1],≥ 128 µg/mL
Clc1cc(Cl)cc(N2CCN(c3noc(-c4ccc5[nH]ccc5c4)n3)CC2)c1,MIC,Staphylococcus aureus [1],≥ 128 µg/mL
Clc1c[nH]nc1-c1nc(N2CCN(c3ccccc3)CC2)no1,MIC,Staphylococcus aureus [1],≥ 128 µg/mL
Oc1ccc(-c2nc(-c3ccc(Oc4ccc(C(F)(F)F)cc4)cc3Cl)no2)cc1,MIC,Enterococcus faecalis [2],4 µg/mL
same,MIC,Staphylococcus aureus [3],4 µg/mL
same,MIC,Staphylococcus aureus [4],2 µg/mL
same,MIC,Enterococcus faecalis [5],4 µg/mL
same,MIC,Staphylococcus aureus [6],8 µg/mL
same,MIC,Bacillus licheniformis,2 µg/mL
same,MIC,[7],4 µg/mL
same,MIC,Bacillus cereus,4 µg/mL
same,MIC,Staphylococcus aureus [8],4 µg/mL
same,MIC,Staphylococcus aureus [9],2 µg/mL
same,MIC,Enterococcus faecalis [10],4 µg/mL
same,MIC,[11],4 µg/mL
same,MIC,Staphylococcus aureus [1],2 µg/mL
same,MIC,Enterococcus faecium [12],4 µg/mL
same,MIC,Enterococcus faecium [13],4 µg/mL
same,MIC,Staphylococcus aureus [14],8 µg/mL
same,MIC,Enterococcus faecium [15],4 µg/mL
Oc1ccc(-c2nc(-c3ccc4sccc4c3)no2)cc1,MIC,Staphylococcus aureus [1],≥ 128 µg/mL
CN[C@H](CC(C)C)C(=O)N[C@H]1C(=O)N[C@@H](CC(N)=O)C(=O)N[C@H]2C(=O)N[C@H]3C(=O)N[C@H](C(=O)N[C@H](C(=O)O)c4cc(O)cc(O)c4-c4cc3ccc4O)[C@H](O)c3ccc(c(Cl)c3)Oc3cc2cc(c3O[C@@H]2O[C@H](CO)[C@@H](O)[C@H](O)[C@H]2O[C@H]2C[C@](C)(N)[C@H](O)[C@H](C)O2)Oc2ccc(cc2Cl)[C@H]1O [VANCOMYCIN],MIC,Enterococcus faecalis [2],128 µg/mL
same,MIC,Staphylococcus aureus [4],64 µg/mL
same,MIC,Enterococcus faecalis [5],2 µg/mL
same,MIC,[7],2 µg/mL
same,MIC,Staphylococcus aureus [9],512 µg/mL
same,MIC,Enterococcus faecalis [10],1 µg/mL
same,MIC,[11],16 µg/mL
same,MIC,Enterococcus faecium [13],256 µg/mL
O=[N+]([O-])c1cc(Oc2ccc(C(F)(F)F)cc2)ccc1-c1noc(-c2ccc(O)cc2)n1,MIC,Staphylococcus aureus [1],4 µg/mL
Oc1ccc(-c2nc(-c3ccc4c(c3)OCO4)no2)cc1,MIC,Staphylococcus aureus [1],≥ 128 µg/mL
Cn1ccc2ccc(-c3noc(-c4ccc(O)cc4)n3)cc21,MIC,Staphylococcus aureus [1],8 µg/mL
Oc1ccc(-c2nc(-c3ccc(N4CCOCC4)cc3)no2)cc1,MIC,Staphylococcus aureus [1],≥ 128 µg/mL
c1cc2cc(-c3nc(-c4ccc5c(c4)OCC5)no3)ccc2[nH]1,MIC,Staphylococcus aureus [1],≥ 128 µg/mL
Oc1ccc(-c2nc(-c3ccc(Sc4cccc(Br)c4)cc3)no2)cc1,MIC,Staphylococcus aureus [1],8 µg/mL
COc1ccc(-c2noc(-c3ccc(O)cc3)n2)cc1OC,MIC,Staphylococcus aureus [1],≥ 500 µg/mL
Oc1ccc(-c2nc(-c3ccc(Oc4ccc(C(F)(F)F)cc4)c(F)c3)no2)cc1,MIC,Staphylococcus aureus [1],8 µg/mL
Cl.Oc1ccc(-c2nc(-c3ccc(N4CCCCC4)cc3)no2)cc1,MIC,Staphylococcus aureus [1],8 µg/mL
Nc1cc(-c2noc(-c3ccc(O)cc3)n2)ccc1Oc1ccc(C(F)(F)F)cc1,MIC,Staphylococcus aureus [1],≥ 128 µg/mL
CC(C)(C)OC(=O)N1CCN(c2ccc(-c3noc(-c4n[nH]cc4Cl)n3)cc2)CC1,MIC,Staphylococcus aureus [1],≥ 128 µg/mL
Clc1cc(Cl)cc(N2CCN(c3noc(-c4n[nH]cc4Cl)n3)CC2)c1,MIC,Staphylococcus aureus [1],≥ 128 µg/mL
Oc1ccc(-c2nc(-c3ccc(Nc4ccccc4)cc3)no2)cc1,MIC,Staphylococcus aureus [1],4 µg/mL
